For five compounds, IC50 results are on record in BindingDB's records for doi:10.3109/14756366.2012.663362 (Institute for Advanced Studies in Basic Sciences (IASBS), 2013).

Acetylcholinesterase, sequence (O42275 whole entry): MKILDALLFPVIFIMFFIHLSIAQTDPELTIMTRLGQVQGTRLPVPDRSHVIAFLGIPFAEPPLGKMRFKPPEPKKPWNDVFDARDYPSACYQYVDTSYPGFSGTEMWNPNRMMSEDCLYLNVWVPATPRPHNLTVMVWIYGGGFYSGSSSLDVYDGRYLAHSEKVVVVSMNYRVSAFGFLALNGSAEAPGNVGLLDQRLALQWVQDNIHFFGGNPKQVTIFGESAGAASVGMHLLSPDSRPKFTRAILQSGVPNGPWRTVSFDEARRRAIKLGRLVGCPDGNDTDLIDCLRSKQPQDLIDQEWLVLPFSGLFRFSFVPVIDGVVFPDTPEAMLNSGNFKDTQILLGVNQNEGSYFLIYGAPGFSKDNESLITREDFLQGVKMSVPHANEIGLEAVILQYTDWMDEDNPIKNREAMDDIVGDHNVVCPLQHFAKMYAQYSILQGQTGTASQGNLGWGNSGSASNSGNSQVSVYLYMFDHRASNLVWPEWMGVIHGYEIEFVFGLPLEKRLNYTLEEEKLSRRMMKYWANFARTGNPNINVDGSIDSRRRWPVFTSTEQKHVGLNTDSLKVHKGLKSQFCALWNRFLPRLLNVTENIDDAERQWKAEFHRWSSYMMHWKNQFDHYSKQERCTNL

In this experiment the target is Acetylcholinesterase (Electrophorus electricus, UniProt O42275). Briefly: AChE Inhibition Assay. The conditions noted are these: pH 8; 25 °C. The method, then:
Inhibitory activities of synthesized α-oxycarbanilinophosphonates were determined at 25°C by the colorimetric method of Ellman et al. [Ellman et al., Biochem. Pharmacol., 7:88-95]. The assay solution contained 0.1 M phosphate buffer, pH 8, 0.3 mM 5,5'-dithiobis(2-nitrobenzoic acid) (DTNB), 0.125 units of AChE (Sigma Chemical Co. from electric eel (Electrophorous electricus)), and 0.2 mM acetylthiocholine iodide as the substrate in a total volume of 2.5 mL. In order to provide sufficient time for interaction with either PAS and/or active site of the enzyme, particularly in competition with the substrate, the synthesized compounds were added to the assay solution and preincubated with the enzyme for 10 min at 25°C. In order to solubilize the synthesized compounds, the reaction mixture contained 2% ethanol (50 μL in 2.5 mL reaction mixture volume). Control experiments were run and it was seen that no inhibitory effect was exerted on the enzyme by ethanol. The changes in abs
Turning to `CCOP(=O)(OCC)C(OC(=O)Nc1ccc(C)c(Cl)c1)c1ccc(Cl)cc1Cl` (stereo not given) [Diethyl[(3-chloro-4-methylanilinocarbonyl)oxy](2,4-dichlorophenyl)methyl phosphonate (4h)], the IC50 (in general, the midpoint of a concentration-inhibition curve) was 6.36 µM.
Under `CCOP(=O)(OCC)C(OC(=O)NCc1ccccc1)c1cccc2ccccc12` (stereo not drawn) [α-Oxycarbanilinophosphonate, 4l] stands 418 µM; under `CCOP(=O)(OCC)C(/C=C/c1ccccc1[N+](=O)[O-])OC(=O)Nc1ccccc1` (stereo not drawn) [α-Oxycarbanilinophosphonate, 4f], 10.3 µM.
`CCOP(=O)(OCC)C(OC(=O)Nc1ccc(C)c(Cl)c1)c1ccc([N+](=O)[O-])cc1` (stereo not drawn) [α-Oxycarbanilinophosphonate, 4i] had an IC50 of 7.47 µM.
Take `CCOP(=O)(OCC)C(OC(=O)Nc1ccccc1)c1ccc(SC)cc1` (stereo not drawn) [α-Oxycarbanilinophosphonate, 4d]: inhibition was half-maximal at 161 µM (IC50).
